Source: patent US20230416314A1, “MODIFIED HIGH MOLECULAR WEIGHT GLUTENIN SUBUNIT AND USES THEREOF” (Ukko Inc., priority 2020, published 2023)
Where two headings read alike, the source gives them in different places. Residues, ends and D or L forms follow the SMILES beside them. No end group written: not given here.

B1: modified 15-mer peptide … (SEQ ID NO: 175) (peptide)
peptide: QGQEGHGPASPPQSG-OH
B2: modified 15-mer peptide … (SEQ ID NO: 173) (peptide)
peptide: QGQHGYDPTSLEQSG-OH
B3: modified 15-mer peptide … (SEQ ID NO: 177) (peptide)
peptide: QGQEGYGPTSGEQSG-OH
B4: modified 15-mer peptide … (SEQ ID NO: 143) (peptide)
peptide: QGQKGYYPTSPHQSG-OH
B5: modified 15-mer peptide … (SEQ ID NO: 179) (peptide)
peptide: QGQSGYYPTSPTQSG-OH
B6: modified 15-mer peptide … (SEQ ID NO: 178) (peptide)
peptide: QGQPGYYPTSPHQSG-OH

Key:
[1] = target: HLA-DQ7.5 (Homo sapiens, UniProt P01909+P01920); test: MHC II/peptide competition binding assay, HLA-DQ7.5
Method: The peptides were synthesized as purified material on the 2 mg scale with free acid C-termini (A&A labs, USA). One skilled in the art would appreciate that the 15-mers used included shorter de-epitoped high molecular weight glutenin peptide sequences (mutated repeating antigenic units), as described throughout. For example, Table 2 provides a listing of 15-mers and the shorter mutated repeating antigenic units present therein.
Briefly, competition assays using different concentrations of wild-type (WT) and modified glutenin peptides were conducted by diluting the peptides in NP40 buffer, and incubation for 2-4 days with purified MHC II and a radiolabeled known MHC binding peptide (peptide probe). MHC II molecules were purified by affinity chromatography, and peptides were radiolabeled using the chloramine T method. After an incubation period, the bound and unbound radiolabeled species were separated, and their relative amounts were determined by either size-exclusion gel-filtration chromatography or monoclonal antibody capture of MHC. The percent of bound radioactivity was then determined.

[2] = target: HLA-DQ2.2 (Homo sapiens, UniProt P01909+P01920, A45G/A70V/C70K/D167G/D89A/E106A/E183D/E77G/E98D/F237L/F77L/G63E/H199R/I129T/K197E/L107V/L178F/L74F/N214S/P84L/P87L/Q57E/Q76R/R75H/S185I/S97I/T103K/T109R/T172A/T60S/V73L/V78E/V99I/Y48F/Y58L/Y62S/Y69I/Y79F); test: MHC II/peptide competition binding assay, HLA-DQ2.2
Method: (§1) One skilled in the art would appreciate that the 15-mers used included shorter de-epitoped high molecular weight glutenin peptide sequences (mutated repeating antigenic units), as described throughout. For example, Table 2 provides a listing of 15-mers and the shorter mutated repeating antigenic units present therein. […] MHC II molecules were purified by affinity chromatography, and peptides were radiolabeled using the chloramine T method. After an incubation period, the bound and unbound radiolabeled species were separated, and their relative amounts were determined by either size-exclusion gel-filtration chromatography or monoclonal antibody capture of MHC. The percent of bound radioactivity was then determined.

[3] = target: HLA-DQ2.5 (Homo sapiens, UniProt P01909+P01920, A45G/A70V/D89A/E106A/E77G/E98D/H199R/L107V/N214S/P84L/P87L/T103K/T109R/T172A/T60S/V78E/V99I/Y58L/Y62S/Y69I/Y79F); test: MHC II/peptide competition binding assay, HLA-DQ2.5
Method: as §1

[4] = target: HLA-DQ8 (Homo sapiens, UniProt P01909+P01920, A209T/A45G/C70Q/D89A/DUP78-78/E183D/E77G/F237L/G63E/H199R/I129T/K197E/L178F/L74F/L98V/Q57E/Q76R/S185I/S97I/T217I/T49S/V73L/Y58L); test: MHC II/peptide competition binding assay, HLA-DQ8
Method: as §1

[5] = target: HLA-DQ2.5; test: MHC II competition binding assay (purified MHC II, radiolabeled probe peptide as competitor)
[6] = Table 3, 15-mer peptides, >40000 signifies binding is undetectable by assay

Molecule | IC50 [3] | IC50 [4] | IC50 [5] | also measured
C[C@@H](O)[C@H](NC(=O)[C@H](CO)NC(=O)[C@@H](NC(=O)[C@@H]1CCCN1C(=O)[C@H](Cc1ccc(O)cc1)NC(=O)[C@H](Cc1c[nH]cn1)NC(=O)[C@H](Cc1c[nH]c2ccccc12)NC(=O)[C@H](CCC(=O)O)NC(=O)[C@H](CCC(N)=O)NC(=O)CNC(=O)[C@@H](N)CCC(N)=O)[C@@H](C)O)C(=O)N[C@@H](CCC(=O)O)C(=O)N[C@@H](CCC(N)=O)C(=O)N[C@@H](CO)C(=O)NCC(=O)O [P1h] (H-QGQEWHYPTSTEQSG-OH) | – | – | – | IC50 [1, 6]: > 40 µM; IC50 [2, 6]: 5.72 µM; IC50 [3, 6]: > 40 µM; IC50 [4, 6]: > 40 µM
C[C@@H](O)[C@H](NC(=O)[C@@H]1CCCN1C(=O)CNC(=O)[C@H](Cc1ccc(O)cc1)NC(=O)CNC(=O)[C@H](CCC(=O)O)NC(=O)[C@H](CCC(N)=O)NC(=O)CNC(=O)[C@@H](N)CCC(N)=O)C(=O)N[C@@H](CO)C(=O)NCC(=O)N[C@@H](CCC(=O)O)C(=O)N[C@@H](CCC(N)=O)C(=O)N[C@@H](CO)C(=O)NCC(=O)O [SEQ ID NO: 177] (H-QGQEGYGPTSGEQSG-OH; N-terminus assumed) | 25.3 µM | > 40 µM | – | –
C[C@@H](O)[C@H](NC(=O)[C@@H]1CCCN1C(=O)[C@H](Cc1ccc(O)cc1)NC(=O)[C@H](Cc1ccc(O)cc1)NC(=O)CNC(=O)[C@H](CCC(=O)O)NC(=O)[C@H](CCC(N)=O)NC(=O)CNC(=O)[C@@H](N)CCC(N)=O)C(=O)N[C@@H](CO)C(=O)N1CCC[C@H]1C(=O)N[C@@H](CCC(=O)O)C(=O)N[C@@H](CCC(N)=O)C(=O)N[C@@H](CO)C(=O)NCC(=O)O [P1b, reference compound] (H-QGQEGYYPTSPEQSG-OH; N-terminus assumed) | – | – | – | IC50 [3, 6]: 3.29 µM; IC50 [4, 6]: 3.76 µM
C[C@@H](O)[C@H](NC(=O)[C@@H]1CCCN1C(=O)[C@H](Cc1ccc(O)cc1)NC(=O)[C@H](Cc1ccc(O)cc1)NC(=O)CNC(=O)[C@@H]1CCCN1C(=O)[C@H](CCC(N)=O)NC(=O)CNC(=O)[C@@H](N)CCC(N)=O)C(=O)N[C@@H](CO)C(=O)N1CCC[C@H]1C(=O)N[C@@H](Cc1c[nH]cn1)C(=O)N[C@@H](CCC(N)=O)C(=O)N[C@@H](CO)C(=O)NCC(=O)O [SEQ ID NO: 178] (H-QGQPGYYPTSPHQSG-OH; N-terminus assumed) | 29.4 µM | > 40 µM | – | –
C[C@@H](O)[C@H](NC(=O)[C@@H]1CCCN1C(=O)[C@H](Cc1ccc(O)cc1)NC(=O)[C@H](Cc1ccc(O)cc1)NC(=O)CNC(=O)[C@H](CCC(N)=O)NC(=O)[C@H](CCC(N)=O)NC(=O)CNC(=O)[C@@H](N)CCC(N)=O)C(=O)N[C@@H](CO)C(=O)N1CCC[C@H]1C(=O)N[C@@H](CCC(N)=O)C(=O)N[C@@H](CCC(N)=O)C(=O)N[C@@H](CO)C(=O)NCC(=O)O [P1a, reference compound] (H-QGQQGYYPTSPQQSG-OH; N-terminus assumed) | – | – | – | IC50 [3, 6]: 29.8 µM; IC50 [4, 6]: 14.2 µM
C[C@@H](O)[C@H](NC(=O)[C@@H]1CCCN1C(=O)[C@H](Cc1ccc(O)cc1)NC(=O)[C@H](CCCNC(=N)N)NC(=O)CNC(=O)[C@H](CCC(=O)O)NC(=O)[C@H](CCC(N)=O)NC(=O)CNC(=O)[C@@H](N)CCC(N)=O)C(=O)N[C@@H](CO)C(=O)N1CCC[C@H]1C(=O)N[C@@H](CCCCN)C(=O)N[C@@H](CCC(N)=O)C(=O)N[C@@H](CO)C(=O)NCC(=O)O [SEQ ID NO: 146] (H-QGQEGRYPTSPKQSG-OH) | > 40 µM | > 40 µM | – | IC50 [1]: > 40 µM; IC50 [2]: > 40 µM
C[C@H](NC(=O)[C@@H]1CCCN1C(=O)CNC(=O)[C@H](CCCNC(=N)N)NC(=O)CNC(=O)[C@H](CCC(=O)O)NC(=O)[C@H](CCC(N)=O)NC(=O)CNC(=O)[C@@H](N)CCC(N)=O)C(=O)N[C@@H](CO)C(=O)N1CCC[C@H]1C(=O)N[C@@H](CCCNC(=N)N)C(=O)N[C@@H](CCC(N)=O)C(=O)N[C@@H](CO)C(=O)NCC(=O)O [SEQ ID NO: 145] (H-QGQEGRGPASPRQSG-OH) | – | – | – | IC50 [1]: > 40 µM
C[C@H](NC(=O)[C@@H]1CCCN1C(=O)CNC(=O)[C@H](Cc1c[nH]cn1)NC(=O)CNC(=O)[C@H](CCC(=O)O)NC(=O)[C@H](CCC(N)=O)NC(=O)CNC(=O)[C@@H](N)CCC(N)=O)C(=O)N[C@@H](CO)C(=O)N1CCC[C@H]1C(=O)N1CCC[C@H]1C(=O)N[C@@H](CCC(N)=O)C(=O)N[C@@H](CO)C(=O)NCC(=O)O [SEQ ID NO: 175] (H-QGQEGHGPASPPQSG-OH; N-terminus assumed) | 22.1 µM | > 40 µM | – | –
C[C@@H](O)[C@H](NC(=O)[C@@H]1CCCN1C(=O)[C@H](Cc1ccc(O)cc1)NC(=O)[C@H](Cc1ccc(O)cc1)NC(=O)CNC(=O)[C@H](CO)NC(=O)[C@H](CCC(N)=O)NC(=O)CNC(=O)[C@@H](N)CCC(N)=O)C(=O)N[C@@H](CO)C(=O)N1CCC[C@H]1C(=O)N[C@H](C(=O)N[C@@H](CCC(N)=O)C(=O)N[C@@H](CO)C(=O)NCC(=O)O)[C@@H](C)O [SEQ ID NO: 179] (H-QGQSGYYPTSPTQSG-OH; N-terminus assumed) | 29.7 µM | > 40 µM | – | –
C[C@@H](O)[C@H](NC(=O)[C@@H]1CCCN1C(=O)[C@H](Cc1ccc(O)cc1)NC(=O)[C@H](Cc1ccc(O)cc1)NC(=O)[C@H](CCCNC(=N)N)NC(=O)[C@@H]1CCCN1C(=O)[C@H](CCC(N)=O)NC(=O)CNC(=O)[C@@H](N)CCC(N)=O)C(=O)N[C@@H](CO)C(=O)N1CCC[C@H]1C(=O)N[C@@H](CCCNC(=N)N)C(=O)N[C@@H](CCC(N)=O)C(=O)N[C@@H](CO)C(=O)NCC(=O)O [P1e] (H-QGQPRYYPTSPRQSG-OH) | – | – | – | IC50 [1, 6]: 19.4 µM; IC50 [3, 6]: 33.2 µM; IC50 [4, 6]: 32.5 µM
NC(=O)CC[C@H](NC(=O)CNC(=O)[C@@H](N)CCC(N)=O)C(=O)N[C@@H](CCC(=O)O)C(=O)N1CCC[C@H]1C(=O)N[C@@H](Cc1ccc(O)cc1)C(=O)NCC(=O)N1CCC[C@H]1C(=O)N[C@@H](CO)C(=O)N[C@@H](CO)C(=O)N1CCC[C@H]1C(=O)N[C@@H](CCC(=O)O)C(=O)N[C@@H](CCC(N)=O)C(=O)N[C@@H](CO)C(=O)NCC(=O)O [SEQ ID NO: 176] (H-QGQEPYGPSSPEQSG-OH) | – | – | – | IC50 [1]: 28.6 µM
C[C@H](NC(=O)CNC(=O)[C@@H](N)CCC(N)=O)C(=O)N[C@@H](C)C(=O)NCC(=O)N[C@@H](Cc1ccc(O)cc1)C(=O)N[C@@H](Cc1ccc(O)cc1)C(=O)N1CCC[C@H]1C(=O)N[C@H](C(=O)N[C@@H](CO)C(=O)N1CCC[C@H]1C(=O)N[C@@H](CCCNC(=N)N)C(=O)N[C@@H](CCC(N)=O)C(=O)N[C@@H](CO)C(=O)NCC(=O)O)[C@@H](C)O [P1c] (H-QGAAGYYPTSPRQSG-OH) | – | – | – | IC50 [1, 6]: 19.9 µM; IC50 [3, 6]: > 40 µM; IC50 [4, 6]: > 40 µM
CC(C)C[C@H](NC(=O)[C@H](CO)NC(=O)[C@@H](NC(=O)[C@@H]1CCCN1C(=O)[C@H](CC(=O)O)NC(=O)[C@H](Cc1ccc(O)cc1)NC(=O)CNC(=O)[C@H](Cc1c[nH]cn1)NC(=O)[C@H](CCC(N)=O)NC(=O)CNC(=O)[C@@H](N)CCC(N)=O)[C@@H](C)O)C(=O)N[C@@H](CCC(=O)O)C(=O)N[C@@H](CCC(N)=O)C(=O)N[C@@H](CO)C(=O)NCC(=O)O [SEQ ID NO: 173] (H-QGQHGYDPTSLEQSG-OH; N-terminus assumed) | 15.9 µM | > 40 µM | – | –
B1 | – | – | 22.1 µM | –
B2 | – | – | 15.9 µM | –
B3 | – | – | 25.3 µM | –
B4 | – | – | 34.4 µM | –
B5 | – | – | 29.7 µM | –
B6 | – | – | 29.4 µM | –
